Experimental data: patent publication US10730858B2, “Lactam, cyclic urea and carbamate, and triazolone derivatives as potent and selective rock inhibitors” (BRISTOL-MYERS SQUIBB COMPANY, priority 2016, dated 2020)

What follows are compounds tested against ROCK2 (Homo sapiens, UniProt O75116) (assay: ROCK2 assay (Caliper LABCHIP peptide phosphorylation, kinase inhibition)). Conditions: 5 μM ATP, 1.5 μM peptide substrate.
Type: biochemical
Method: The effectiveness of compounds of the present invention as ROCK inhibitors can be determined in a 30 μL assay containing 20 mM HEPES, pH 7.5, 20 mM MgCl2, 0.015% Brij-35, 4 mM DTT, 5 μM ATP and 1.5 μM peptide substrate (FITC-AHA-AKRRRLSSLRA-OH) (SEQ ID NO. 1). Compounds were dissolved in DMSO so that the final concentration of DMSO was <2%, and the reaction was initiated with Rho kinase variants. After incubation, the reaction was terminated by the addition of EDTA and the phosphorylated and non-phosphorylated peptides separated using a LABCHIP® 3000 Reader (Caliper Life Sciences). […] Compounds were tested in dose-response format, and the inhibition of kinase activity was calculated at each concentration of compound. The inhibition data were fit using a curve-fitting program to determine the IC50; i.e., the concentration of compound required to inhibit 50% of kinase activity.
Representative Examples were tested in the ROCK2 assay described above and found having ROCK2 inhibitory activity. The ranges of the ROCK2 IC50 values are as follows: ROCK2 IC50: ++++ (<10 nM) +++ (10-100 nM) ++ (100-500 nM) + (500-2000 nM)

ROCK2, sequence (O75116 whole entry, species assumed): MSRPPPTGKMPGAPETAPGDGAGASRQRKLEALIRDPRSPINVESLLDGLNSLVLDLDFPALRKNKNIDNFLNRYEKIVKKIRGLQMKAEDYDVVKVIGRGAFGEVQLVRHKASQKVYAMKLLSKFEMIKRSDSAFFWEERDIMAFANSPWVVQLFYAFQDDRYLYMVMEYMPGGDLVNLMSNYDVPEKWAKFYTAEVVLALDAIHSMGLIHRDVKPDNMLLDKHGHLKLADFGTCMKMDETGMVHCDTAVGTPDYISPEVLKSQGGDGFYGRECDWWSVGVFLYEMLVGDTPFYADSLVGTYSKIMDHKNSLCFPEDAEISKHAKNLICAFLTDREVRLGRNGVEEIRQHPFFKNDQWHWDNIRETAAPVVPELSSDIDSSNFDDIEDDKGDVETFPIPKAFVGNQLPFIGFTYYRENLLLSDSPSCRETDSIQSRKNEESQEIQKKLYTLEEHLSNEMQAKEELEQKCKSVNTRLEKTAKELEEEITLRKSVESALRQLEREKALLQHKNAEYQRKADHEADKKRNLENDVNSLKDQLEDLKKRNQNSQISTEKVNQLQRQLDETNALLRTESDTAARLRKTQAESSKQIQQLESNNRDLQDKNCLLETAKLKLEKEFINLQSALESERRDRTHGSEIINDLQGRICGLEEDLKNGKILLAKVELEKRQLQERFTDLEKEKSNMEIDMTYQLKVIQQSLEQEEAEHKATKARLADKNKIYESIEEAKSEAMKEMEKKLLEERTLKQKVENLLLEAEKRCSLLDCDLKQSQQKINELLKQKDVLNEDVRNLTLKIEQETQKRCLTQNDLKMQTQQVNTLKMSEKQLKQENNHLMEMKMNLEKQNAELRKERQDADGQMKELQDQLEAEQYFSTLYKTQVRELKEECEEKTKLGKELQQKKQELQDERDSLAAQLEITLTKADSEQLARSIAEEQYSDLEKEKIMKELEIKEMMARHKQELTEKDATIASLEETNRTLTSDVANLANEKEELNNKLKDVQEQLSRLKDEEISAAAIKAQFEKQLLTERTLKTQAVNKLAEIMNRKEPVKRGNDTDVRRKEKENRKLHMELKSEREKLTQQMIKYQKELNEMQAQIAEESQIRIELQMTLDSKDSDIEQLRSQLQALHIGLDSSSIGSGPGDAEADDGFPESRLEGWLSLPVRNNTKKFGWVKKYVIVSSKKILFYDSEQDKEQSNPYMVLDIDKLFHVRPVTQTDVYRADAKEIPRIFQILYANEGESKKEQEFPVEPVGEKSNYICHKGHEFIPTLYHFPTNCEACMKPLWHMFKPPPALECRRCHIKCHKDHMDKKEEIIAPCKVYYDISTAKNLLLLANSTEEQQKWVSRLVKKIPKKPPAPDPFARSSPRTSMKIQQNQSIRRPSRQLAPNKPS

| SMILES | IC50 [nM] |
| --- | --- |
| CC(C)(C)OC(=O)NCC1CN(c2ccc(-c3n[nH]c(=O)c4ccccc34)cc2)C(=O)O1 (stereo not drawn) [Example 16, tert-butyl N-({2-oxo-3-[4-(4-oxo-3,4-dihydrophthalazin-1-yl)phenyl]-1,3-oxazolidin-5-yl}methyl)carbamate] | 500 to 2000 |
| CCCC1CN(c2ccc(-c3n[nH]c(=O)c4ccccc34)cc2)C(=O)O1 (stereo not drawn) [Example 17, 4-[4-(2-oxo-5-propyl-1,3-oxazolidin-3-yl)phenyl]-1,2-dihydrophthalazin-1-one] | 100 to 500 |
| O=C(NCC1CN(c2ccc(-c3n[nH]c(=O)c4ccccc34)cc2)C(=O)O1)c1ccccc1 (stereo not drawn) [Example 18, N-({2-oxo-3-[4-(4-oxo-3,4-dihydrophthalazin-1-yl)phenyl]-1,3-oxazolidin-5-yl}methyl)benzamide] | 100 to 500 |
| O=C1OC(c2ccc(F)cc2)CN1c1ccc(-c2n[nH]c(=O)c3ccccc23)cc1 (stereo not drawn) [Example 19, 4-{4-[5-(4-fluorophenyl)-2-oxo-1,3-oxazolidin-3-yl]phenyl}-1,2-dihydrophthalazin-1-one] | 500 to 2000 |
| CS(=O)(=O)c1ccc(CC2CN(c3ccc(-c4n[nH]c(=O)c5ccccc45)cc3)C(=O)O2)cc1 (stereo not drawn) [Example 20, 4-(4-{5-[(4-methanesulfonylphenyl)methyl]-2-oxo-1,3-oxazolidin-3-yl}phenyl)-1,2-dihydrophthalazin-1-one] | 100 to 500 |
| O=C1OC2CCCCC2N1c1ccc(-c2n[nH]c(=O)c3ccccc23)cc1 (stereo not drawn) [Example 21, 4-[4-(2-oxo-octahydro-1,3-benzoxazol-3-yl)phenyl]-1,2-dihydrophthalazin-1-one] | 500 to 2000 |
| O=C1OC(C(O)(c2ccccc2)C(F)(F)F)CN1c1ccc(-c2n[nH]c(=O)c3ccccc23)cc1 (stereo not drawn) [Example 22, 4-{4-[2-oxo-5-(2,2,2-trifluoro-1-hydroxy-1-phenylethyl)-1,3-oxazolidin-3-yl]phenyl}-1,2-dihydrophthalazin-1-one] | 500 to 2000 |
| C[C@@H]1OC(=O)N(c2ccc(-c3n[nH]c(=O)c4ccccc34)cc2)[C@@H]1c1ccccc1 [Example 23, 4-{4-[(4R,5S)-5-methyl-2-oxo-4-phenyl-1,3-oxazolidin-3-yl]phenyl}-1,2-dihydrophthalazin-1-one] | 500 to 2000 |
| O=C1C(N2CCOCC2)CCN1c1ccc(-c2n[nH]c(=O)c3ccccc23)cc1 (stereo not drawn) [Example 24, 4-{4-[3-(morpholin-4-yl)-2-oxopyrrolidin-1-yl]phenyl}-1,2-dihydrophthalazin-1-one] | 500 to 2000 |
| O=C1C(NCc2ccccc2)CCN1c1ccc(-c2n[nH]c(=O)c3ccccc23)cc1 (stereo not drawn) [Example 25, 4-{4-[3-(benzylamino)-2-oxopyrrolidin-1-yl]phenyl}-1,2-dihydrophthalazin-1-one] | 500 to 2000 |
| O=C1C(NC2CCCC2)CCN1c1ccc(-c2n[nH]c(=O)c3ccccc23)cc1 (stereo not drawn) [Example 28, 4-{4-[3-(cyclopentylamino)-2-oxopyrrolidin-1-yl]phenyl}-1,2-dihydrophthalazin-1-one] | 500 to 2000 |
| O=C1C(NC2Cc3ccccc3C2)CCN1c1ccc(-c2n[nH]c(=O)c3ccccc23)cc1 (stereo not drawn) [Example 29, 4-(4-{3-[(2,3-dihydro-1H-inden-2-yl)amino]-2-oxopyrrolidin-1-yl}phenyl)-1,2-dihydrophthalazin-1-one] | 500 to 2000 |
| O=c1[nH]nc(-c2ccc(-n3ncn(Cc4ccccc4)c3=O)cc2)c2ccccc12 [Example 41, 4-[4-(4-benzyl-5-oxo-4,5-dihydro-1H-1,2,4-triazol-1-yl)phenyl]-1,2-dihydrophthalazin-1-one] | 100 to 500 |
| COc1cc(NC2CCN(c3ccc(-c4n[nH]c(=O)c5ccccc45)cc3)C2=O)ccc1F (stereo not drawn) [Example 42, 4-(4-{3-[(4-fluoro-3-methoxyphenyl)amino]-2-oxopyrrolidin-1-yl}phenyl)-1,2-dihydrophthalazin-1-one] | 10 to 100 |
| CCOc1cccc(NC2CCN(c3ccc(-c4n[nH]c(=O)c5ccccc45)cc3)C2=O)c1 (stereo not drawn) [Example 43, 4-(4-{3-[(3-ethoxyphenyl)amino]-2-oxopyrrolidin-1-yl}phenyl)-1,2-dihydrophthalazin-1-one] | 10 to 100 |
| COc1cccc([C@@H](C)NC2CCN(c3ccc(-c4n[nH]c(=O)c5ccccc45)cc3)C2=O)c1 (stereo partly drawn) [Example 44, 4-[4-(3-{[(1R)-1-(3-methoxyphenyl)ethyl]amino}-2-oxopyrrolidin-1-yl)phenyl]-1,2-dihydrophthalazin-1-one] | 500 to 2000 |
| O=C1C(NCCc2ccccc2)CCN1c1ccc(-c2n[nH]c(=O)c3ccccc23)cc1 (stereo not drawn) [Example 45, 4-(4-{2-oxo-3-[(2-phenylethyl)amino]pyrrolidin-1-yl}phenyl)-1,2-dihydrophthalazin-1-one] | 500 to 2000 |
| COc1cccc(Cn2cnn(-c3ccc(-c4n[nH]c(=O)c5ccccc45)cc3)c2=O)c1 [Example 46, 4-(4-{4-[(3-methoxyphenyl)methyl]-5-oxo-4,5-dihydro-1H-1,2,4-triazol-1-yl}phenyl)-1,2-dihydrophthalazin-1-one] | 100 to 500 |
| O=c1n(Cc2ccccc2)cnn1-c1ccc(-c2n[nH]c(=O)n3cccc23)cc1 [Example 47, 4-benzyl-1-(4-{4-oxo-3H,4H-pyrrolo[1,2-d][1,2,4]triazin-1-yl}phenyl)-4,5-dihydro-1H-1,2,4-triazol-5-one] | 500 to 2000 |
| COc1cc(NC2CCN(c3ccc(-c4n[nH]c(=O)c5ccccc45)cc3)C2=O)ccc1N1CCN(C)CC1 (stereo not drawn) [Example 48, 4-[4-(3-{[3-methoxy-4-(4-methylpiperazin-1-yl)phenyl]amino}-2-oxopyrrolidin-1-yl)phenyl]-1,2-dihydrophthalazin-1-one] | 10 to 100 |
| COc1cc(NC2CCN(c3ccc(-c4n[nH]c(=O)c5ccccc45)cc3)C2=O)ccc1N1CCOCC1 (stereo not drawn) [Example 49, 4-[4-(3-{[3-methoxy-4-(morpholin-4-yl)phenyl]amino}-2-oxopyrrolidin-1-yl)phenyl]-1,2-dihydrophthalazin-1-one] | 10 to 100 |

Next, values leading:

| IC50 [nM] | SMILES |
| --- | --- |
| 10 to 100 | COc1cccc(NC2CCN(c3ccc(-c4n[nH]c(=O)c5ccccc45)cc3)C2=O)c1 (stereo not drawn) [Example 26, 4-(4-{3-[(3-methoxyphenyl)amino]-2-oxopyrrolidin-1-yl}phenyl)-1,2-dihydrophthalazin-1-one] |
| 10 to 100 | O=C1C(Nc2ccccc2)CCN1c1ccc(-c2n[nH]c(=O)c3ccccc23)cc1 (stereo not drawn) [Example 27, 4-{4-[2-oxo-3-(phenylamino)pyrrolidin-1-yl]phenyl}-1,2-dihydrophthalazin-1-one] |
| 10 to 100 | CCc1ccccc1NC1CCN(c2ccc(-c3n[nH]c(=O)c4ccccc34)cc2)C1=O (stereo not drawn) [Example 31, 4-(4-{3-[(2-ethylphenyl)amino]-2-oxopyrrolidin-1-yl}phenyl)-1,2-dihydrophthalazin-1-one] |
| 10 to 100 | COc1cc(F)cc(NC2CCN(c3ccc(-c4n[nH]c(=O)c5ccccc45)cc3)C2=O)c1 (stereo not drawn) [Example 32, 4-(4-{3-[(3-fluoro-5-methoxyphenyl)amino]-2-oxopyrrolidin-1-yl}phenyl)-1,2-dihydrophthalazin-1-one] |
| 10 to 100 | O=C1C(Nc2ccc3c(c2)OCO3)CCN1c1ccc(-c2n[nH]c(=O)c3ccccc23)cc1 (stereo not drawn) [Example 33, 4-(4-{3-[(2H-1,3-benzodioxol-5-yl)amino]-2-oxopyrrolidin-1-yl}phenyl)-1,2-dihydrophthalazin-1-one] |
| 10 to 100 | O=C1C(Nc2ccc3c(c2)OCCCO3)CCN1c1ccc(-c2n[nH]c(=O)c3ccccc23)cc1 (stereo not drawn) [Example 34, 4-(4-{3-[(3,4-dihydro-2H-1,5-benzodioxepin-7-yl)amino]-2-oxopyrrolidin-1-yl}phenyl)-1,2-dihydrophthalazin-1-one] |
| 10 to 100 | Cn1nc(C2CC2)cc1NC1CCN(c2ccc(-c3n[nH]c(=O)c4ccccc34)cc2)C1=O (stereo not drawn) [Example 35, 4-(4-{3-[(3-cyclopropyl-1-methyl-1H-pyrazol-5-yl)amino]-2-oxopyrrolidin-1-yl}phenyl)-1,2-dihydrophthalazin-1-one] |
| 10 to 100 | Cc1[nH]nc(C2CC2)c1NC1CCN(c2ccc(-c3n[nH]c(=O)c4ccccc34)cc2)C1=O (stereo not drawn) [Example 36, 4-(4-{3-[(3-cyclopropyl-5-methyl-1H-pyrazol-4-yl)amino]-2-oxopyrrolidin-1-yl}phenyl)-1,2-dihydrophthalazin-1-one] |
| 10 to 100 | COc1ccc(F)c(NC2CCN(c3ccc(-c4n[nH]c(=O)c5ccccc45)cc3)C2=O)c1 (stereo not drawn) [Example 37, 4-(4-{3-[(2-fluoro-5-methoxyphenyl)amino]-2-oxopyrrolidin-1-yl}phenyl)-1,2-dihydrophthalazin-1-one] |
| 10 to 100 | COc1cc(C)cc(NC2CCN(c3ccc(-c4n[nH]c(=O)c5ccccc45)cc3)C2=O)c1 (stereo not drawn) [Example 38, 4-(4-{3-[(3-methoxy-5-methylphenyl)amino]-2-oxopyrrolidin-1-yl}phenyl)-1,2-dihydrophthalazin-1-one] |
| 10 to 100 | O=C1C(Nc2cnn(-c3ccccc3)c2)CCN1c1ccc(-c2n[nH]c(=O)c3ccccc23)cc1 (stereo not drawn) [Example 39, 4-(4-{2-oxo-3-[(1-phenyl-1H-pyrazol-4-yl)amino]pyrrolidin-1-yl}phenyl)-1,2-dihydrophthalazin-1-one] |
| 10 to 100 | COc1c(F)ccc(NC2CCN(c3ccc(-c4n[nH]c(=O)c5ccccc45)cc3)C2=O)c1F (stereo not drawn) [Example 40, 4-(4-{3-[(2,4-difluoro-3-methoxyphenyl)amino]-2-oxopyrrolidin-1-yl}phenyl)-1,2-dihydrophthalazin-1-one] |
